We go through six compounds from US20090029966A1, “COMBINATION THERAPY WITH PARP INHIBITORS” (ABBOTT LABORATORIES, priority 2006, published 2009).

Each structure is given as a SMILES string.

Series [1] concerns HCT-116 tumors. The series can be described thus: HCT-116 tumors in nude mice, combination with radiotherapy. The note with it: 6.25, 12.5 or 25 mg/kg/day i.p. OMP 14 days + radiation 2 Gy/day x 10 doses; compared to radiotherapy or compound alone. Format: in vivo. As to the method: This study was done in nude mice bearing HCT-116 tumors in the leg. Three days (−3) prior to the beginning of radiotherapy, mice were implanted i.p with OMPs delivering A-620223 at 0, 6.25, 12.5, or 25 mg/kg/day for 14 days. Starting day 0 mice received radiation treatment (2 Gy/day) for 10 doses alone or in combination with the 3 different doses of 2-(N-propylpiperidin-4-yl)benzimidazole-4-carboxamide.

Series [2] relates to B16F10 murine melanoma. The series can be described thus: B16F10 murine melanoma, combination with TMZ. The following applies: A-861695 25, 12.5 or 3.1 mg/kg/day p.o. b.i.d. days 1-14 + TMZ 62.5 mg/kg/day p.o. q.d. x5. Type of series: in vivo, C57BL/6 mice. As to the method:
This study was done on mice with B 16F 10 murine melanoma. Mice were divided into six treatment groups with 8-10 mice per group. See figure two for treatment groups. B16F10 cells were injected s.c. into C57BL/6 mice on day 0. Dosing was initiated on day one. A-861695 was administered p.o., b.i.d. on days 1-14. On days 3-7 temozolomide (TMZ) was administered p.o., q.d. (for the groups receiving both TMZ and A-861695, TMZ was given two hours after the A-861695 was administered).

In series [3] the test system is 9 L orthotopic gliosarcoma. The series can be described thus: 9L orthotopic gliosarcoma, combination with TMZ. Format: in vivo, Fisher 344 rats.
Protocol: Tumor growth was monitored longitudinally using contrast-enhanced magnetic resonance imaging (MRI). Animal survival was evaluated based on humane euthanasia of rats presenting signs of irreversible illness.
Series [4] concerns MX-1 breast carcinoma xenograft. The series can be described thus: MX-1 breast carcinoma xenograft, combination with carboplatin. Format: in vivo, scid mice. The text has this: The MX-1 breast carcinoma xenograft model in scid mice was used to test the ability of A-861695 to potentiate the efficacy of platinum-based agents. This cell line was derived from a person with a poorly differentiated mammary carcinoma. MX-1 is sensitive to cytotoxic agents. Carboplatin, a second-generation platinum containing anticancer drug, is currently the standard of care for treating lung, ovarian, and head and neck cancers. MX-1 tumors are sensitive to carboplatin. […] Mice were randomized into treatment groups of 8-10 mice per group. […] A-861695 was administered at 25 mg/kg/day s.c., via 14-day osmotic minipumps (OMPs) starting on day 17. Carboplatin was given i.p., on day 20, 24 and 27.

Series [5] shares this test system. The series can be described thus: MX-1 breast carcinoma xenograft, combination with cisplatin. Type of series: in vivo, nude mice. As to the method:
In this study the efficacy of A-861695 in combination with cisplatin was evaluated in the MX-1 breast carcinoma xenograft model in nude mice. Tumors were size-matched to 100 mm^3 on day 16 and PARP inhibitor therapy (p.o., b.i.d. ×8) was initiated the same day. A single dose of cisplatin at 6.0 mg/kg/day was administered i.p. day 18. Data, shown in FIG. 5, are mean±S.E.M. of 9 mice per treatment group.

For series [6], the system named is intra-cerebellar medulloblastoma xenographs; HSB T-cell ALL; JM1 pre-B ALL; P115 primary AML cells. The series can be described thus: TMZ and ABT-888 combinations in medulloblastoma xenografts and leukemia cells (FIGS. 7-11). Format: in vivo, mice. The note with it: differing amounts of TMZ and ABT-888 combinations.
For series [7], the system named is DoHH-2 cells. The series can be described thus: B-cell lymphoma (DoHH-2 cell) flank xenograft. The following applies: for Mean Tumor Volume Day 27 mm^3 ± SE: ABT-888 25 mg/kg/day PO BID 7 days, Temozolomide 50 mg/kg/day PO QD 5 days, tumor size at start 503 mm^3; for % T/C Day 28 (dosing 11 days): treatment group/corresponding vehicle group x 100.
Protocol: Animals were size matched on day 15 to an approximate tumor volume of 503 mm^3.
Group mouse weights were recorded three times a week to monitor for weight loss due to toxicity or excessive tumor burden.
Series [8] relates to PC3M-Luc human prostate carcinoma. The series can be described thus: Orthotopic PC3M-Luc human prostate carcinoma model (BLI). Type of series: in vivo, male SCID-C.B17 mice. The following applies: TMZ 50 mg/kg/day alone or with ABT-888 25 mg/kg/day. As to the method:
Bioluminescent PC-3M-luciferase-C6 osteolytic human prostate cancer cells, constitutively expressing luciferase (Caliper Life Sciences, Hopkinton, Mass.) were orthotopically injected into the prostates of ˜10-week-old male SCID-C.B17 mice (C.B-17/IcrCrl-scid-BR, Charles River Labs). Mice were housed in a facility with constant humidity, temperature and a 12-h light-dark cycle. Mice were anesthetized with intramuscular injections of ketamine (40 mg/kg) and rompum (5 mg/kg) before surgery. The surgical region was shaved and sterilized with iodine and alcohol swabs. A lower midline incision was made to access the prostate. The left lobe of the dorsal prostate was injected with 1×10^6 PC3M-Luc cells (975 photon/second/cell) in 30 μl (1:1 matrigel, Collaborative Biomedical Products, Bedford, Mass.). The peritoneal cavity was closed with 4-0 suture and skin incision was closed with clip.
In vivo bioluminescent image (BLI) was performed with an IVISR Imaging System (Caliper Life Sciences, Hopkinton, Mass.). […] Images and measurements of bioluminescent signals were acquired and analyzed using Living Image® software (Caliper Life Sciences, Hopkinton, Mass.). Uniform region of interests (ROIs) were used across all groups and time points to achieve quantification of bioluminescent signal. […] The mice were then monitored with this system at weekly intervals. […]

For series [9], the system named is MDA-231-LN-luc cells.
The subject of series [10] is tumor. The series can be described thus: Valproic acid and radiotherapy (FIG. 6). Format: in vivo. The note with it: single and combined administration of valproic acid and radiotherapy.
The mark [11] stands for this setting: TMZ 50 PO q.d x 5, ABT-888/TMZ 25/50 mg/kg/day po b.i.d./po q.d., normalized BLI post size match.

Turning to `CCCN1CCC(c2nc3cccc(C(N)=O)c3[nH]2)CC1` [2-(N-propylpiperidin-4-yl)benzimidazole-4-carboxamide], in series [1], the “reduction of tumor size in combination with radiotherapy (FIG. 1)” value is listed as “significant improvement in the reduction of tumor size”.
For the compound `C[C@]1(c2nc3c(C(N)=O)cccc3[nH]2)CCCN1` [ABT-888, 2-[(2R)-2-methylpyrrolidin-2-yl]-1H-benzimidazole-4-carboxamide], the “potentiation of TMZ efficacy (FIG. 2)” value in [2] is reported as “significantly potentates the TMZ efficacy in a dose dependent manner”. Besides, in series [3] (A-861695 50 mg/kg/day + TMZ 17.5 mg/kg/day, day 14, p<0.005), the “tumor volume reduction better than TMZ alone” value is listed as 44%. Also, the “reduction of tumor volume (day 14)” value in series [3] (A-861695 50 mg/kg/day p.o. b.i.d. in combination with TMZ 17.5 mg/kg/day p.o. q.d., MRI) was found to be 63%. Also, in [3] (A-861695 18 or 50 mg/kg/day with TMZ, p<0.005 Log-rank test), the animal survival result is recorded as “significantly prolonged animal survival”. In addition, the “potentiation of carboplatin (tumor volumes, FIG. 4)” value in series [4] (A-861695 25 mg/kg/day s.c. OMP 14 days + carboplatin 10 and 15 mg/kg/day) is on record as “pronounced potentiation of carboplatin”. Further, the “cures (no measurable tumors at end of the trial)” value was 8/9 in series [5] (A-861695 5 mg/kg/day p.o. b.i.d. x8 + cisplatin 6.0 mg/kg/day i.p. day 18), 8/9 in [5] (A-861695 25 mg/kg/day p.o. b.i.d. x8 + cisplatin 6.0 mg/kg/day i.p. day 18) and 6/9 in series [5] (A-861695 50 mg/kg/day p.o. b.i.d. x8 + cisplatin 6.0 mg/kg/day i.p. day 18). In addition, the “dose at which maximal potentiation of cisplatin was reached” value in series [5] (dose-response 5, 25, 50 mg/kg/day) came out at 5 mg/kg/day. In [6], the “effect on toxicity of TMZ (FIGS. 7-11)” value is given as “enhancement of toxicity of TMZ”. Also, the “bioavailability in brain tissue” value (compared to other PARP inhibitors) is listed as “improved bioavailability in brain tissue”. Besides, the blood brain barrier entry (rat, in vivo) is on record as “crosses the blood brain barrier”. The “Mean Tumor Volume Day 27 mm^3 ± SE” value in series [7] is on record as 2970 ± 410 mm^3. The Observations entry in series [7] (toxicity assessment in Scid female mice) is on record as “None”. The “% T/C Day 28 (dosing 11 days)” value in series [7] was 127 (—) %.
As for `Cn1nnc2c(C(N)=O)ncn2c1=O` [TMZ, temozolomide], the “efficacy after second treatment schedule (day 55)” value in [8] is given as “no efficacy”. For the same compound, in series [9] (setting [11]), the “Day 12 % Tumor change (BLI)” value is reported as 66 ± 76% and the “Day 30 % Tumor change (BLI)” value came out at 1217 ± 560%. For the same compound, the “Weight loss (Observations)” value in series [9] (after last dose of 2nd cycle) is given as over 10% after last. Also, the Mortality in series [9] (three cycles of 5 days with 11 days of rest, n=11) is 0/11. Besides, in [7], the “Mean Tumor Volume Day 27 mm^3 ± SE” value was determined as 2202 ± 253 mm^3 and the “% T/C Day 28 (dosing 11 days)” value stood at 94%. Also, the “% TGI Day 28 (dosing 11 days)” value in series [7] (tumor growth inhibition vs vehicle) was 6%.
`N.N.O=C([O-])C1(C(=O)[O-])CCC1.[Pt+2]` [carboplatin, reference compound]: the “tumor inhibition as a single agent (FIG. 4)” value in series [4] (carboplatin 5, 10, 15 mg/kg/day i.p. day 20, 24, 27) is “dose-dependent tumor inhibition”.
With `N.N.[Cl][Pt][Cl]` [cisplatin, reference compound], in series [5] (cisplatin monotherapy 6.0 mg/kg/day i.p. day 18), the “cures (no measurable tumors at end of the trial)” value is 3/9.
In the case of `CCCC(CCC)C(=O)O` [valproic acid], in series [10], the “effect on radiotherapy (FIG. 6)” value is “can enhance the effects of radiotherapy”.
